The values below are quoted from earlier work in patent EP0974361A1, “METHOD OF USING ANTACID AGENT AND PHARMACEUTICAL PREPARATION CONTAINING ANTACID AGENT” (CHUGAI SEIYAKU KABUSHIKI KAISHA, priority 1996, dated 1997).

Like-named read-outs stand apart in the source and are kept apart here.

Take `CN/C(=N/CCSCc1nc[nH]c1C)NC#N` [cimetidine]: the AUC entry (simultaneous administration of sucralfate (Yoshida et al.)) is reported as “drop”.

On to `C[C@H]1O[C@@H](O[C@H]2[C@@H](O)C[C@H](O[C@H]3[C@@H](O)C[C@H](O[C@H]4CC[C@@]5(C)[C@H](CC[C@@H]6[C@@H]5C[C@@H](O)[C@]5(C)[C@@H](C7=CC(=O)OC7)CC[C@]65O)C4)O[C@@H]3C)O[C@@H]2C)C[C@H](O)[C@@H]1O` [digoxin], for which the drop in adsorption (used along with sucralfate (Giesing et al.)) was 19%.

On to `CC(C)Cc1ccc(C(C)C(=O)O)cc1` (centres unmarked) [ibuprofen], for which the absorption entry (used along with sucralfate (Anaya et al.)) is “reduced and retarded”.

Turning to `CC(=O)N1CCN(c2ccc(OCC3COC(Cn4ccnc4)(c4ccc(Cl)cc4Cl)O3)cc2)CC1` (centres unmarked) [ketoconazole], under “used along with sucralfate (Goss et al.; Maconochie et al.)”, the “bioavailability dropped by” value is on record as 21%.

`CNC(=C[N+](=O)[O-])NCCSCc1ccc(CN(C)C)o1` [ranitidine]: the “bioavailability dropped by” value (in vivo) is 29%.
